# From patent US10947213B1 (Merck Patent GmbH, priority 2015, dated 2021)
# pIC50: −log10 of the molar value. Counter-ions that a name gives are not always drawn.
# Target: T1, TLR7/NFKb HEK cells (Homo sapiens, UniProt Q9NYK1)
# T1 construct: expressed in transfected cells; host or cells: HEK cells (TLR7/NFKb reporter line)
# T1 sequence (Q9NYK1 27-1049): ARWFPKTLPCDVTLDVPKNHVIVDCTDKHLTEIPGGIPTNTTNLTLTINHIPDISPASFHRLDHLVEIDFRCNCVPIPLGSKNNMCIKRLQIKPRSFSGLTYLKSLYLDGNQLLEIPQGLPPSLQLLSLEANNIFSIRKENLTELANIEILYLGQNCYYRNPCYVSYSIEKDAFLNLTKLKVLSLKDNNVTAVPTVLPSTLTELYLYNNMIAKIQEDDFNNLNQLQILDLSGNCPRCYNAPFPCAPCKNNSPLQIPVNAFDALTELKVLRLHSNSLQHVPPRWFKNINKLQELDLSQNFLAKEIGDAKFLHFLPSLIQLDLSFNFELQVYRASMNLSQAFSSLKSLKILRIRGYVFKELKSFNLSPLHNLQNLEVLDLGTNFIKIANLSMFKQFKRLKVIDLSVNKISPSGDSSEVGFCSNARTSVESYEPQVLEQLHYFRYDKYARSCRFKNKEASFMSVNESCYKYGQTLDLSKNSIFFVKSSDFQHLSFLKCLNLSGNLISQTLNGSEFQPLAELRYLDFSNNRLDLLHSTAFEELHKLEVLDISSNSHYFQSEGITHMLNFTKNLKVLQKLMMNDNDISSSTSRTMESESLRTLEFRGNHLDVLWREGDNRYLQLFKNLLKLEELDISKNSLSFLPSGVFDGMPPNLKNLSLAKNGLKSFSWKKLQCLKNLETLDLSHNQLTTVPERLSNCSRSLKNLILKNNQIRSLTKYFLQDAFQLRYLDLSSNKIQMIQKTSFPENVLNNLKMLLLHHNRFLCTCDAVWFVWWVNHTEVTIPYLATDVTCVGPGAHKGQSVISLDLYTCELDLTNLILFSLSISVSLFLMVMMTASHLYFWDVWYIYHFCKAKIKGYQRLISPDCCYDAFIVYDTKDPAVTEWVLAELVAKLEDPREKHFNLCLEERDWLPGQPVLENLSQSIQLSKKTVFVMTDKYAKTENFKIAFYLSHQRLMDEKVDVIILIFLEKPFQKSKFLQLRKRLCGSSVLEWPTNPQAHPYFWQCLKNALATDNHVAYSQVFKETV
# Experiment: HEK Cell Assay (TLR7/NFKb reporter, Steady-Glo luciferase readout)
# Format: cell-based
# Conditions: 30 min compound preincubation, then R*48 agonist for 5 hours, read-out: Potency
# In short: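 Steady-Glo luminescence after 5 h stimulation with R*48 agonist, following 30 min compound preincubation. Assay run in HEK cells carrying a TLR7/NFKb luciferase reporter, plated at 5000 cells/well and grown 24 h at 37° C (10% CO2) before treatment.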
row,Structure (SMILES),pIC50
1,"C[C@H]1C[C@@H](NC(=O)C2CCCN2C)CN(c2ccc(C#N)c3nccnc23)C1 (stereo partly drawn) [Compound 171, N-[(3R,5S)-1-(8-cyanoquinoxalin-5-yl)-5-methylpiperidin-3-yl]-1-methylpyrrolidine-2-carboxamide]",> 6.00
2,"C[C@H]1C[C@@H](NC(=O)C2CCCN2C)CN(c2ccnc3nccnc23)C1 (stereo partly drawn) [Compound 172, Methyl-N-[(3R,5S)-5-methyl-1-[pyrido[2,3-b]pyrazin-8-yl]piperidin-3-yl]pyrrolidine-2-carboxamide]",5.00 to 6.00
3,"CC(C)[C@H](O)C(=O)N[C@@H]1C[C@H](C)CN(c2ccc(C(F)(F)F)c3ncccc23)C1 [Compound 194, (2S)-2-hydroxy-3-methyl-N-[(3R,5S)-5-methyl-1-[8-(trifluoromethyl)quinolin-5-yl]piperidin-3-yl]butanamide]",> 6.00
4,"COc1ccc(N2C[C@@H](C)C[C@@H](NC(=O)CC(C)(C)C)C2)c2nccnc12 [Compound 202, N-[(3R,5S)-1-(8-methoxyquinoxalin-5-yl)-5-methylpiperidin-3-yl]-3,3-dimethylbutanamide]",5.00 to 6.00
5,"COc1ccc(N2C[C@@H](C)C[C@@H](NC(=O)CN(C)C)C2)c2nccnc12 [Compound 203, 2-(dimethylamino)-N-[(3R,5S)-1-(8-methoxyquinoxalin-5-yl)-5-methylpiperidin-3-yl]acetamide]",5.00 to 6.00
6,"CC(C)[C@H](O)C(=O)N[C@@H]1C[C@H](C)CN(c2ccc(C(F)F)c3ncccc23)C1 [Compound 204, (2S)—N-[(3R,5S)-1-[8-(difluoromethyl)quinolin-5-yl]-5-methylpiperidin-3-yl]-2-hydroxy-3-methylbutanamide]",> 6.00
7,"CC1(C)C[C@@H](N)CN(c2ccc(C#N)c3nccnc23)C1 [Compound 210, 8-[(5R)-5-amino-3,3-dimethylpiperidin-1-yl]quinoxaline-5-carbonitrile hydrochloride]",> 6.00
8,"CC(C)[C@@H](O)C(=O)N[C@H]1CN(c2ccc(C#N)c3nccnc23)CC(C)(C)C1 [Compound 213, (2R)—N-[(3R)-1-(8-cyanoquinoxalin-5-yl)-5,5-dimethylpiperidin-3-yl]-2-hydroxy-3-methylbutanamide]",> 6.00
9,"CC1(C)C[C@@H](NC(=O)CN2CCOCC2)CN(c2ccc(C#N)c3nccnc23)C1 [Compound 214, N-[(3R)-1-(8-cyanoquinoxalin-5-yl)-5,5-dimethylpiperidin-3-yl]-2-(morpholin-4-yl)acetamide]",5.00 to 6.00
10,"CC(C)(C)CC(=O)N[C@H]1CN(c2ccc(C#N)c3nccnc23)CC(C)(C)C1 [Compound 215, N-[(3R)-1-(8-cyanoquinoxalin-5-yl)-5,5-dimethylpiperidin-3-yl]-3,3-dimethylbutanamide]",> 6.00
11,"COCCN[C@H]1CN(c2ccc(C#N)c3nccnc23)CC(C)(C)C1 [Compound 216, 8-[(5R)-5-[(2-methoxyethyl)amino]-3,3-dimethylpiperidin-1-yl]quinoxaline-5-carbonitrile]",> 6.00
12,"CN(C)CC(=O)N[C@H]1CN(c2ccc(C#N)c3nccnc23)CC(C)(C)C1 [Compound 217, N-[(3R)-1-(8-cyanoquinoxalin-5-yl)-5,5-dimethylpiperidin-3-yl]-2-(dimethylamino)acetamide]",> 6.00
13,"CC1(C)C[C@@H](NC(=O)CO)CN(c2ccc(C#N)c3nccnc23)C1 [Compound 218, N-[(3R)-1-(8-cyanoquinoxalin-5-yl)-5,5-dimethylpiperidin-3-yl]-2-hydroxyacetamide]",5.00 to 6.00
14,"CN1CCC(N[C@H]2CN(c3ccc(C#N)c4nccnc34)CC(C)(C)C2)C1=O (stereo partly drawn) [Compound 219, 8-[(5R)-3,3-dimethyl-5-[(1-methyl-2-oxopyrrolidin-3-yl)amino]piperidin-1-yl]quinoxaline-5-carbonitrile]",> 6.00
15,"CC1(C)C[C@@H](NC(=O)CC(F)(F)F)CN(c2ccc(C#N)c3nccnc23)C1 [Compound 220, N-[(3R)-1-(8-cyanoquinoxalin-5-yl)-5,5-dimethylpiperidin-3-yl]-3,3,3-trifluoropropanamide]",5.00 to 6.00

# The remaining lines, values ahead:
row,pIC50,Structure (SMILES)
1,> 6.00,"C[C@H]1C[C@@H](N)CN(c2ccc(C(N)=O)c3ncccc23)C1 [Compound 180, 5-[(3R,5S)-3-amino-5-methylpiperidin-1-yl]quinoline-8-carboxamide]"
2,< 5.00,"CC(C)[C@H](O)C(=O)N[C@@H]1C[C@H](C)CN(c2ccc(C(N)=O)c3ncccc23)C1 [Compound 181, 5-[(3R,5S)-3-[(2S)-2-hydroxy-3-methylbutanamido]-5-methylpiperidin-1-yl]quinoline-8-carboxamide]"
3,5.00 to 6.00,"C[C@H]1C[C@@H](NC(=O)CC(C)(C)C)CN(c2ccc(C(N)=O)c3ncccc23)C1 [Compound 182, 5-[(3R,5S)-3-(3,3-dimethylbutanamido)-5-methylpiperidin-1-yl]quinoline-8-carboxamide]"
4,< 5.00,"COCCN[C@@H]1C[C@H](C)CN(c2ccc(C(N)=O)c3ncccc23)C1 [Compound 183, 5-[(3R,5S)-3-[(2-methoxyethyl)amino]-5-methylpiperidin-1-yl]quinoline-8-carboxamide]"
5,< 5.00,"C[C@H]1C[C@@H](NC(=O)CN(C)C)CN(c2ccc(C(N)=O)c3ncccc23)C1 [Compound 186, 5-[(3R,5S)-3-[2-(dimethylamino)acetamido]-5-methylpiperidin-1-yl]quinoline-8-carboxamide]"
6,> 6.00,"COc1ccc(N2C[C@@H](C)C[C@@H](N)C2)c2cccnc12 [Compound 187, (3R,5S)-1-(8-methoxyquinolin-5-yl)-5-methylpiperidin-3-amine]"
7,> 6.00,"COc1ccc(N2C[C@@H](C)C[C@@H](NC(=O)[C@@H](O)C(C)C)C2)c2cccnc12 [Compound 188, (2S)-2-hydroxy-N-[(3R,5S)-1-(8-methoxyquinolin-5-yl)-5-methylpiperidin-3-yl]-3-methylbutanamide]"
8,5.00 to 6.00,"COc1ccc(N2C[C@@H](C)C[C@@H](NC(=O)CC(C)(C)C)C2)c2cccnc12 [Compound 189, N-[(3R,5S)-1-(8-methoxyquinolin-5-yl)-5-methylpiperidin-3-yl]-3,3-dimethylbutanamide]"
9,> 6.00,"COCCN[C@@H]1C[C@H](C)CN(c2ccc(OC)c3ncccc23)C1 [Compound 190, (3R,5S)—N-(2-methoxyethyl)-1-(8-methoxyquinolin-5-yl)-5-methylpiperidin-3-amine]"
10,5.00 to 6.00,"COc1ccc(N2C[C@@H](C)C[C@@H](NC(=O)CN(C)C)C2)c2cccnc12 [Compound 193, 2-(dimethylamino)-N-[(3R,5S)-1-(8-methoxyquinolin-5-yl)-5-methylpiperidin-3-yl]acetamide]"
11,> 6.00,"C[C@H]1C[C@@H](NC(=O)CC(C)(C)C)CN(c2ccc(C(F)(F)F)c3ncccc23)C1 [Compound 195, 3,3-dimethyl-N-[(3R,5S)-5-methyl-1-[8-(trifluoromethyl)quinolin-5-yl]piperidin-3-yl]butanamide]"
12,> 6.00,"COCCN[C@@H]1C[C@H](C)CN(c2ccc(C(F)(F)F)c3ncccc23)C1 [Compound 196, (3R,5S)—N-(2-methoxyethyl)-5-methyl-1-[8-(trifluoromethyl)quinolin-5-yl]piperidin-3-amine]"
13,> 6.00,"C[C@H]1C[C@@H](NC(=O)CN(C)C)CN(c2ccc(C(F)(F)F)c3ncccc23)C1 [Compound 199, 2-(dimethylamino)-N-[(3R,5S)-5-methyl-1-[8-(trifluoromethyl)quinolin-5-yl]piperidin-3-yl]acetamide]"
14,> 6.00,"C[C@H]1C[C@@H](N)CN(c2ccc(O)c3ncccc23)C1 [Compound 200, 5-[(3R,5S)-3-amino-5-methylpiperidin-1-yl]quinolin-8-ol hydrochloride]"
15,> 6.00,"C[C@H]1C[C@@H](NC(=O)CC(C)(C)C)CN(c2ccc(C(F)F)c3ncccc23)C1 [Compound 205, N-[(3R,5S)-1-[8-(difluoromethyl)quinolin-5-yl]-5-methylpiperidin-3-yl]-3,3-dimethylbutanamide]"
16,> 6.00,"COCCN[C@@H]1C[C@H](C)CN(c2ccc(C(F)F)c3ncccc23)C1 [Compound 206, (3R,5S)-1-[8-(difluoromethyl)quinolin-5-yl]-N-(2-methoxyethyl)-5-methylpiperidin-3-amine]"
17,> 6.00,"C[C@H]1C[C@@H](NC(=O)CN(C)C)CN(c2ccc(C(F)F)c3ncccc23)C1 [Compound 209, N-[(3R,5S)-1-[8-(difluoromethyl)quinolin-5-yl]-5-methylpiperidin-3-yl]-2-(dimethylamino)acetamide]"
